# Source: patent publication EP3807270B1, “NOVEL HETEROARYL HETEROCYCLYL COMPOUNDS FOR THE TREATMENT OF AUTOIMMUNE DISEASE” (F. Hoffmann-La Roche AG, priority 2018, dated 2019)
# Target: T1, human TLR8 (Homo sapiens, UniProt Q9NR97)
# T1 construct: host or cells: HEK293 (HEK-Blue)
# T1 sequence (Q9NR97 27-1041): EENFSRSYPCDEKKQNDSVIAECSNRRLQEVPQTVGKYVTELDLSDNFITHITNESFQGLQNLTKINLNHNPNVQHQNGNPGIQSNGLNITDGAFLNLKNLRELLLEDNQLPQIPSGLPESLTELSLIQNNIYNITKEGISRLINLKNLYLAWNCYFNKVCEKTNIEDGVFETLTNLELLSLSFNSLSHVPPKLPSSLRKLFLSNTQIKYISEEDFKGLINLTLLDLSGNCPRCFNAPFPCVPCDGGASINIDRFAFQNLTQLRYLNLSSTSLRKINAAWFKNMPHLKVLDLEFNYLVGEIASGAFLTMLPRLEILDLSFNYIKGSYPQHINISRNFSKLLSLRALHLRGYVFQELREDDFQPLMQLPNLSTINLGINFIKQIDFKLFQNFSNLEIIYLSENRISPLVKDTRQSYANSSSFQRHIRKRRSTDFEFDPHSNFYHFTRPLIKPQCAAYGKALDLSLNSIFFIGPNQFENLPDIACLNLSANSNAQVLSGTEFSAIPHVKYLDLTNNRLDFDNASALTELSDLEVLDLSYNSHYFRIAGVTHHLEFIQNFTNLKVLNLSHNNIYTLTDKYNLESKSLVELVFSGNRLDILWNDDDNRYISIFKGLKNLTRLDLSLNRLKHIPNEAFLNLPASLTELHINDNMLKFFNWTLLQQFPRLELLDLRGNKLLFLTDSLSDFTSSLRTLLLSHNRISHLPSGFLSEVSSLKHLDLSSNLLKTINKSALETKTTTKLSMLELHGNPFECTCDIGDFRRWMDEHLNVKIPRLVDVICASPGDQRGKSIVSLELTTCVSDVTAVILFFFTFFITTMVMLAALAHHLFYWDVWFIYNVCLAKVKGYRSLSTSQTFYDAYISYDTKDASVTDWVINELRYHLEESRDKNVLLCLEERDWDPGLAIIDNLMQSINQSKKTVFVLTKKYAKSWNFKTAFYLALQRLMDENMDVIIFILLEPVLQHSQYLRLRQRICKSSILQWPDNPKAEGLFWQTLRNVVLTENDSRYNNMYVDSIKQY
# Test: HEK293-Blue-hTLR-8 cells assay (SEAP reporter, R848 stimulation)
# Assay type: cell-based
# Settings: HEK293-Blue-hTLR8 cells, R848, 20 hrs; read-out: HEK/hTLR8 IC50
# How it was run: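 HEK293-Blue-hTLR8 cells (NF-κB/AP-1-driven SEAP) in DMEM/10% FBS were treated with serially diluted compound (1% DMSO final) plus R848 for 20 hrs at 37 °C. Supernatant SEAP was measured with QUANTI-Blue after 2 hrs at 37 °C, absorbance 620-655 nm; antagonism seen as reduced reporter.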
row,IC50 [nM],SMILES
1,4,"C[C@@H]1CN(c2ccc(C#N)c3ncccc23)C[C@H](CN2CCN(c3cc4c(cn3)CCN[C@H]4C)CC2)O1 (single isomer, unassigned) [Example 75]"
2,6,"C[C@@H]1CN(c2ccc(C#N)c3ncccc23)C[C@H](CN2CCN(c3ccc4c(n3)CN[C@@H]4C)CC2)O1 (single isomer, unassigned) [Example 64]"
3,4,"C[C@@H]1CN(c2ccc(C#N)c3ncccc23)C[C@H](CN2CCN(c3cc4c(cn3)CN[C@@H](C)C4)CC2)O1 (single isomer, unassigned) [Example 71]"

# The next lines start with the molecule.
row,SMILES,IC50 [nM]
1,"C[C@@H]1CN(c2ccc(C#N)c3ncccc23)C[C@H](CN2C[C@@H]3[C@@H](C2)OCCN3c2cnc3c(c2)CCNC3)O1 [Example 52, 5-[(2S,6R)-2-[[(4aR,7aR)-4-(5,6,7,8-tetrahydro-1,7-naphthyridin-3-yl)-2,3,4a,5,7,7a-hexahydropyrrolo[3,4-b][1,4]oxazin-6-yl]methyl]-6-methylmorpholin-4-yl]quinoline-8-carbonitrile]",26
2,"C[C@@H]1CN(c2ccc(C#N)c3ncccc23)C[C@H](CN2CC3(C2)CN(c2ncc4c(n2)CCNC4)CCO3)O1 [Example 51, 5-[(2R,6S)-2-methyl-6-[[8-(5,6,7,8-tetrahydropyrido[4,3-d]pyrimidin-2-yl)-5-oxa-2,8-diazaspiro[3.5]nonan-2-yl]methyl]morpholin-4-yl]quinoline-8-carbonitrile]",5
3,"C[C@@H]1CN(c2ccc(C#N)c3ncccc23)C[C@H](CN2CCC(Nc3ccc4c(c3)CNC4)C2)O1 (stereo partly drawn) [Example 38, 5-[(2S,6R)-2-[[3-(isoindolin-5-ylamino)pyrrolidin-1-yl]methyl]-6-methyl-morpholin-4-yl]quinoline-8-carbonitrile]",50
4,"C[C@@H]1CN(c2ccc(C#N)c3ncccc23)C[C@H](CN2CCN(c3cnc4c(c3)CCNC4)CC2)O1 [Example 23, 5-[(2R,6S)-2-methyl-6-[[4-(5,6,7,8-tetrahydro-1,7-naphthyridin-3-yl)piperazin-1-yl]methyl]morpholin-4-yl]quinoline-8-carbonitrile]",11
5,"C[C@@H]1CN(c2ccc(C#N)c3ncccc23)C[C@H](CN2CCN(c3ccc4c(c3)C(O)CNC4)CC2)O1 (stereo partly drawn) [Example 22, 5-[(2S,6R)-2-[[4-(4-hydroxy-1,2,3,4-tetrahydroisoquinolin-6-yl)piperazin-1-yl]methyl]-6-methyl-morpholin-4-yl]quinoline-8-carbonitrile]",19
6,"C[C@@H]1CN(c2ccc(C#N)c3ncccc23)C[C@H](CN2CC3(C2)CN(c2cc4c(cn2)CCNC4)CCO3)O1 [Example 48, 5-[(2R,6S)-2-methyl-6-[[8-(5,6,7,8-tetrahydro-2,6-naphthyridin-3-yl)-5-oxa-2,8-diazaspiro[3.5]nonan-2-yl]methyl]morpholin-4-yl]quinoline-8-carbonitrile]",8
